Results published in article PMC10988834, “Neq2X7: a multi-purpose and open-source fusion DNA polymerase for advanced DNA engineering and diagnostics PCR” (BMC Biotechnology, 2024).

Biological target: T1, Neq2X (Nanoarchaeum equitans, UniProt Q74M37+Q74N74, Q74N74:A523R/Q74N74:N540R)
T1 construct: gene NEQ068; double mutant Neq DNA polymerase without Sso7d, N-terminal 6xHis; one polypeptide, E. coli Rosetta2 (DE3) pLysS
Assay: PCR amplification, agarose gel
Assay type: biochemical
Conditions: with dATP, dCTP, dGTP, 1 min/kb, extension 72 °C

T1 sequence (Q74M37 entry or part of it): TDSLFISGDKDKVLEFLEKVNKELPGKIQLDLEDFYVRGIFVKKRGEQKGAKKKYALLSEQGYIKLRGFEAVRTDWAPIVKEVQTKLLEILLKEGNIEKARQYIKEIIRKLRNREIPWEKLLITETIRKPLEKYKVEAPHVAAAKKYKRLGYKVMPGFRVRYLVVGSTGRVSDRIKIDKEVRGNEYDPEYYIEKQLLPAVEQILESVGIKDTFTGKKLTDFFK
T1 sequence (Q74N74 entry or part of it A523R/N540R): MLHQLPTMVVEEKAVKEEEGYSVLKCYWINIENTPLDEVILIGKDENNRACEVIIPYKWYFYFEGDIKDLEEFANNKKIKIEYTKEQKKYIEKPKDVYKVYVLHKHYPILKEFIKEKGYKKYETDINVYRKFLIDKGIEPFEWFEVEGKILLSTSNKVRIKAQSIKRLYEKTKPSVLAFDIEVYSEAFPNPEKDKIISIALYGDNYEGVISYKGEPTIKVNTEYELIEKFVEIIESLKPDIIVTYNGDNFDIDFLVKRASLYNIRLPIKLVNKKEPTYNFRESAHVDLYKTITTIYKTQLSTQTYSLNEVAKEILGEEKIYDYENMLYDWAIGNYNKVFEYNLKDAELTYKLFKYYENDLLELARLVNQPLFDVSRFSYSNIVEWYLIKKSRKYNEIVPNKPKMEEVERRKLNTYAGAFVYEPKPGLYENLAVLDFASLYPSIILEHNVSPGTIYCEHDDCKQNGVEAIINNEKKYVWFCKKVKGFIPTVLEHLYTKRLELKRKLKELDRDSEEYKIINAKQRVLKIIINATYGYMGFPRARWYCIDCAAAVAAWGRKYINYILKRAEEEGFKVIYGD

Compound | PCR amplification, agarose gel (3-12 kb amplicons) | PCR amplification, agarose gel (dUTP fully replacing dTTP, 3 kb amplicon)
Cc1cn([C@H]2C[C@H](O)[C@@H](COP(=O)(O)OP(=O)(O)OP(=O)(O)O)O2)c(=O)[nH]c1=O [dTTP] | all three polymerases amplified DNA to a detectable level | 
O=c1ccn([C@H]2C[C@H](O)[C@@H](COP(=O)(O)OP(=O)(O)OP(=O)(O)O)O2)c(=O)[nH]1 [dUTP] |  | all tested polymerases were able to generate a detectable PCR product
